# Experimental data: a melting point compilation (Tetko et al.; mined from patent text by program, amines drawn as free bases though some values may be those of a salt)
row,melting point [°C],SMILES
1,73 to 74,CN1CCN(CC(O)COc2cccc3ccccc23)CC1 (stereo unspecified)
2,124,COc1cc(Nc2nccc(NC(=O)OC(C)(C)C)n2)cc(OC)c1OC
3,120 to 122,CCC(CO)Nc1nc(NCc2cccc(OC)c2O)c2ncn(C(C)C)c2n1 (racemic)
4,124 to 127,O=C(O)Cc1ccc(-c2ccc(C(CC3CCOCC3)c3ccc(S(=O)(=O)C4CC4)cc3)[nH]2)nc1 (stereo unspecified)
5,105 to 106,COC(=O)[C@H]1Cc2cc(SC)ccc2C(=O)[C@H](C)S1 (relative stereo)
6,257 to 259,Cc1c(O)noc1C(=O)O
7,208,N#Cc1cnn2cccc2c1NC1(c2ccc(Cl)cc2Cl)CC1
8,> 300,O=C(O)c1ccc(C=Cc2cc(=O)cc(-c3ccccc3)o2)cc1
9,182 to 184,Cc1nc(N)c2nc(CNC(=O)C3CC3)n(CC(C)C)c2c1C
10,81 to 83,N#CCc1ccc(OCCc2coc(-c3ccccc3)n2)cc1
11,224 to 225,Cc1c(Cl)cc(C(C)(C)C)c(O)c1-c1nc2ccc(F)cc2c(=O)[nH]1
12,155 to 156,CC(=O)OCC(=O)C1CCC2C3CCC4CC(OS(=O)(=O)c5ccc(C)cc5)CCC4(C)C3C(=O)CC12C (stereo unspecified)
13,156 to 158,O=C(C=Cc1ccccc1)C(Cc1ccccc1)C(=O)C=Cc1ccccc1 (stereo unspecified)
14,151 to 158,Cn1cc2c(nc(NC(=O)Nc3ccc(CC(=O)NCCCOCCOCCOCCCNC(=O)OC(C)(C)C)cc3)n3nc(-c4ccco4)nc23)n1
15,138 to 142,CC(C(=O)O)c1ccc(-c2ccc(F)cc2)c(O)c1 (stereo unspecified)
16,174 to 176,CN(CCc1cccc(OCC(=O)O)c1)c1cnc(-c2ccccc2)c(-c2ccccc2)n1
17,> 275,O=C(O)CCc1ccc(O)c(C=Nc2cc(S(=O)(=O)O)ccc2O)c1
18,172 to 174,Nc1ccc(Oc2ccccc2-c2ccccc2Oc2ccc(N)c(N)c2)cc1N
19,127 to 129,CN1CCc2c(c3cc(Cl)ccc3n2CCC#N)C1
20,79 to 80,CCOC(=O)c1sc(SC)c2c1CCC(C=O)=C2Cl
21,171 to 173,COC(=O)c1nc(-c2ccc(Cl)c(OC)c2F)nc(N)c1/C=C/Br
22,245 to 248,COc1cc2nc(N3CCN(C(=O)C=Cc4ccccc4)CC3)nc(N)c2cc1OC
23,128 to 133,CON=Cc1cc(N=c2sc(=S)n3n2CCCC3)c(F)cc1Cl

row,melting point [°C],SMILES
1,45 to 46.9,N#CC1(CCCCCCCCCCCCC2(C#N)CC2)CC1
2,98 to 99,CCc1cccc(CC)c1N(CCl)C(=O)c1ccccc1
3,143 to 150,Cc1cc(O)c(I)cc1C(=O)O
4,155,Cc1ccc2ccccc2c1COc1ccc(C(=O)NC[C@@H](C(=O)NO)N2CCN(S(C)(=O)=O)CC2)cc1
5,242 to 246,COC(=O)c1cn2c(n1)COc1cc(C)c(Cl)cc1-2
6,109,CCOC(=O)CCc1cc2ccccc2c(-c2ccccc2)n1
7,168 to 170,CCn1c(Oc2cccc(N3CCC(O)CC3)c2)nnc1[C@@H](C)NS(=O)(=O)c1ccc(Cl)c(Cl)c1
8,252 to 254,Cc1[nH]c(C(=O)Nc2ccc(C#N)cc2)c(C)c1-c1nc2ccc(C(=O)c3ccccc3)cc2[nH]1
9,68,CCC(=O)C(CCCOc1ccc2c(c1)OCO2)C(=O)CC
10,260,CCOC(=O)c1cn(C2CC2)c2nc3c(F)c(F)c(F)cc3cc2c1=O
11,101 to 102,CNc1cc(OC)c(C(=O)NC2CCN(Cc3ccccc3)C2)cc1Cl (stereo unspecified)
12,88,ClCn1cc(Cl)c(-c2cc(Cl)cc(Cl)c2)n1
13,52 to 54,CC(C(=O)O)c1ccc(O[Si](C)(C)C(C)(C)C)cc1 (stereo unspecified)
14,178 to 180,CCn1nc(C(N)=O)cc1CC(C)(C)NC(=O)OC(C)(C)C
15,201 to 202,CC(CCCC(O)(C(F)(F)F)C(F)(F)F)C1CCC2C3CC=C4CC(O)CC(O)C4(C)C3CCC12C (stereo unspecified)
16,177 to 178,Cc1oc(-c2ccccc2)nc1CNC(=O)c1ccc(Cn2cc(CCC(=O)O)c(-c3ccccc3)n2)cc1
17,148 to 150,COC(=O)C(Oc1ccc(C23CC4CC(CC(C4)C2)C3)cc1)c1ccc(Oc2ccc(Cl)cc2)cc1 (stereo unspecified)
18,280 to 282,c1ccc2c(c1)cc(-c1nnn[nH]1)c1nnnn12
19,257 to 259,CCN1C(=O)CC(C)(C)c2ccc(-c3nc4ccccc4[nH]3)cc21
20,195 to 198,O=C(OCN1C(=O)CN(CCN2CC(=O)N(COC(=O)c3ccc4c(c3)OCO4)C(=O)C2)CC1=O)c1ccc2c(c1)OCO2
21,265,O=C1c2ccc(C(F)(F)F)cc2C(=O)N1c1ccc2ccc(Cl)nc2n1
22,168 to 169,O=[N+]([O-])c1ccc(CNc2ncnc3c2ncn3C2OC(CO)C(O)C2O)cc1 (stereo unspecified)
23,265 to 270,O=C1NC(=S)N/C1=C\c1c[nH]c2ncc(-c3ccccc3)cc12

row,melting point [°C],SMILES
1,155 to 157,CC(CCCN(C)c1ccccc1)NCC(O)c1ccc(O)c(C(N)=O)c1 (stereo unspecified)
2,311 to 315,Cn1ccc2c3c(c(-c4ccccc4S(C)=O)cc21)C(=O)NC3=O (stereo unspecified)
3,222,Nc1ccccc1NC(=O)c1ccc(C(=O)Nc2cccc(Nc3nc(-c4cccnc4)cs3)c2)s1
4,118 to 120,CC(C)(C)OC(=O)N1CCC2(CC1)NC(c1nc(-c3ccccc3)c[nH]1)Cc1c2[nH]c2ccccc12 (stereo unspecified)
5,255 to 259,CC(C)NC1=NS(=O)(=O)c2ccc(Cc3nc(C4CC4)no3)cc2N1
6,108,Cc1ccc(Br)cc1Cn1c(C=O)nn(C)c1=O
7,88 to 90,Cc1cc(-c2cc(O)c(SCc3ccccc3)c(=O)o2)cc(C)n1
8,276 to 278,O=C(O)c1ccc(-c2ccc3cc(CCO)c(C45CC6CC(CC(C6)C4)C5)cc3c2)cc1
9,76 to 78,COc1cccc(Oc2ncccc2C=O)c1
10,153 to 155,COC(=O)N(Cc1nc(-c2ccccc2)c(-c2ccccc2)o1)c1cccc(OCC(=O)O)c1
11,105 to 107,Cn1nc2ccccc2c1C(=O)NCCN1CCC(c2ccc(F)cc2)CC1
12,177 to 180,CCOC(OCC)c1cc(NC(c2ccccc2)(c2ccccc2)c2ccccc2)c(F)c(-c2ccc(Cl)c(OC)c2F)n1
13,98 to 99,Nc1ccc2oc3c(c2c1)CCCCC3
14,190 to 194,CC(=O)NCC1CN(c2ccc(N3CCN(C=O)CC3)c(F)c2)C(=O)O1 (stereo unspecified)
15,103,N#CSc1cc([N+](=O)[O-])ccc1Cl
16,123 to 124,Fc1ccc(-c2cc(C(C(F)(F)F)C(F)(F)F)[nH]c2-c2ccc(F)cc2)cc1
17,143 to 145,Cc1cc(Br)c2c(c1)N(S(=O)(=O)c1ccc(Cl)cc1)CCO2
18,292 to 295,O=C1N=C(N2CCOCC2)SC1c1cccc(-c2ccc(O)c(-c3ccccc3)c2)n1 (stereo unspecified)
19,71 to 76,Cc1c2n(c3ccccc13)C(=O)N(C(C)c1ncn(C(c3ccccc3)(c3ccccc3)c3ccccc3)c1C)CC2 (stereo unspecified)
20,133 to 135,O=C1c2ccccc2C(=O)N1OCc1cnoc1
21,167 to 175,N#Cc1ccc(-c2cn(-c3ccc(C#N)cc3)c(CC3(O)C=CC=CN3)n2)cc1 (stereo unspecified)
22,222 to 226,N/N=C/c1ccc(-c2ncn(-c3ccc(OC(F)(F)F)cc3)n2)cc1
23,111 to 114,N#CC(c1ccccc1)(c1ccccc1)C1CN(C2CCCCC2)C1

row,melting point [°C],SMILES
1,77 to 78,CCCCCCC(=O)c1ccc2cc(OC)c(OC)cc2c1
2,132 to 135,Cn1ncc(C(=O)c2ccc(S(C)(=O)=O)c(C3=NC(C)(C)CO3)c2Cl)c1O
3,81 to 83.5,CC(C)(C)C(O)(C=Cc1ccc(Cl)cc1)Cn1cncn1 (stereo unspecified)
4,156 to 158,CCOC(=O)c1ccc2c(c1)Cc1ccc(C(=O)OCC)cc1O2
5,99 to 101,CCOC=C(C#N)C(=O)c1cc(F)c(F)c(F)c1F
6,78 to 86,CC(=Nc1c(C)cccc1C)C(C)=Nc1c(C)cccc1C
7,196 to 197,CCn1cc(C(=O)NCc2ccc(Cl)cc2)c(=O)c2cc(Br)sc21
8,107,NC(=S)N1CCC(=O)C(C(c2ccccc2)c2ccccc2)C1 (stereo unspecified)
9,182 to 183,COc1ccc(C(=O)Nc2cc(NC(=O)c3cccc(O)c3)ccc2C)cc1OC
10,251 to 253,CCC(NC(=O)C1CC1)c1ccc(Cl)c2nc3n(c12)CCCN3c1ccc(Cl)cc1Cl (stereo unspecified)
11,153 to 154,O=C(Nc1ccccc1C(F)(F)F)C1CCCCC1
12,194 to 197,Cc1c(-c2ccc(OCC(=O)O)cc2)oc(=O)c(Sc2ccccc2)c1O
13,277 to 279,O=C1CNCc2cc(-c3ccc(F)cc3)c(C=NO)c3ccn1c23
14,281 to 283,CSc1c(C2=C(c3cn(C)c4ccccc34)C(=O)NC2=O)c2ccccc2n1C
15,63,COC1=C(OC)C(=O)C(CCCCCCCCCCCCO)=C(C)C1=O
16,157 to 160,O=C(O)C1=CCC2C1C(=O)C2(Cl)Cl (stereo unspecified)
17,130 to 132,CNC(=O)[C@H](C)C[C@H](O)[C@H](CC1CCCCC1)NC(=O)[C@H](Cc1cscn1)NC(=O)[C@@H](CC(=O)N1CCOCC1)Cc1ccccc1
18,132 to 133,COc1cc(COc2nn(-c3ccccc3)cc2CC(=O)N2CCOCC2)ccc1OCc1nc(-c2ccco2)oc1C
19,46 to 47,c1ccc(Cc2ncc(-c3ccncc3)s2)cc1
20,138 to 140,CC(C)c1ccc(Nc2cccc3c2C(=O)N(C2CCC(=O)NC2=O)C3=O)cc1 (stereo unspecified)

row,SMILES,melting point [°C]
1,CCN(CC)C(=O)c1ccc(C(=C2CCN(Cc3ccccc3)CC2)c2ccc(Cl)cc2)cc1,100 to 110
2,N#Cc1nn(-c2c(Cl)cc(C(F)(F)F)cc2Cl)c(N)c1-c1cccnc1,265 to 267
3,CCC(C)(C)OC(=O)OOC1CC(C)(C)N(C(C)=O)C(C)(C)C1,70 to 73
4,OCc1nnc2n1-c1sc(Cl)cc1C(c1ccccc1Cl)=NC2,219 to 221
5,CCN(CC)C(=O)Oc1nc(C)c2cc(OC)c(OC)cc2c1NC(N)=O,215 to 216
6,CC(O)/C=C/c1ncn2c1CN(C)C(=O)c1c(Cl)cccc1-2 (stereo unspecified),232 to 233
7,CC(=O)NC(NC(=O)Nc1ccccc1)C(=O)NCc1ccccc1 (stereo unspecified),242
